From patent US12576084B2, “Methods for treating testicular and ovarian adrenal rest tumors” (Spruce Biosciences, Inc., priority 2018, dated 2026)

Experiments:
[1] = tested on: CRF-induced locomotor behavior; experiment: CRF-induced locomotor behavior after i.c.v. administration of CRF; assay type: in vivo; conditions: oral, 10 mg/kg
Experimental: (§1) FIG. 11A-11B. Graphic representation of an […] binding assay of a CRF1 antagonist (Compound 1); ^125I-sauvagine binding to rat cerebellar membranes one hour after oral administration of increasing Compound 1 doses (A) and in vivo inhibition of CRF-induced activity after treatment with a CRF1 antagonist; Compound 1 (oral, 10 mg/kg) (B).

[2] = Phase 1 studies in healthy volunteers: pharmacokinetics; assay type: in vivo
Experimental: The specification of study drug dosing at 10 pm and after consumption of a snack is based on information from the Phase 1 studies in healthy volunteers. The plasma Cmax (maximum concentration) for Compound 1 in the Phase 1 studies occurred approximately 5 hours after dosing. Therefore, Compound 1 will be dosed daily at 10 pm in this study in order to achieve peak plasma study drug concentration at the time of day when most adrenal androgens are produced. […] Specific dose reduction criteria, strict individual treatment stopping criteria, and appropriate laboratory and medical assessments have been established to ensure subject safety. (FIGS. 1A-1B).
To date, a total of 53 subjects, all healthy adults aged 21 to 65 years, have been treated with at least 1 dose of Compound 1 in 2 Phase 1 studies. The first-in-human study of Compound 1 (Study I3C-FW-BLAA) evaluated single ascending doses of 2 mg to 800 mg. […] A subsequent study (Study I3C-FW-BLAB) evaluated repeat doses of 50 mg, 100 mg, or 200 mg Compound 1 once daily for 14 consecutive days.

[3] = Nonclinical studies: liver function tests; assay type: in vivo; conditions: significantly higher doses
Text: However, these events were not observed in the Phase 1 clinical studies. Clinical laboratory measures of liver chemistry will be assessed throughout this study, and strict individual treatment stopping criteria for liver chemistry findings are in place.

rats = experiment: Repeat-dose oral toxicology study, 91 days, rats; assay type: in vivo, rat
Text: (§2) The nonclinical safety profile of Compound 1 has been evaluated in repeat-dose range-finding and definitive toxicology studies of up to 91 days in duration in rats and dogs using the clinically relevant route (oral) and schedule of administration (once daily).

CRF1 receptor [4] = target: T1, CRF1 receptor (Homo sapiens, UniProt P34998); experiment: In vitro and ex vivo CRF1 receptor binding studies
T1 sequence (P34998 24-415): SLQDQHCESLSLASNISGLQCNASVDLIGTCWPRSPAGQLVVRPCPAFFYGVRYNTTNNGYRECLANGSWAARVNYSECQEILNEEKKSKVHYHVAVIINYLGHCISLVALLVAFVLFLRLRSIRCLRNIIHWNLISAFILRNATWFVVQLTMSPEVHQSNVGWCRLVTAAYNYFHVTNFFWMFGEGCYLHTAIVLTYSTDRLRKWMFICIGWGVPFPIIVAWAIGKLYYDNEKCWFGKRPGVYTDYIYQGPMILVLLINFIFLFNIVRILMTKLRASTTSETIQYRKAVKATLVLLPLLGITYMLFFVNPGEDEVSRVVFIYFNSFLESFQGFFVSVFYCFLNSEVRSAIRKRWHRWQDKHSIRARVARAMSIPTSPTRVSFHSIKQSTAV
Experimental: as §1

[5] = Phase 2 study in classic CAH: pharmacokinetics; assay type: in vivo, human; conditions: 200 to 1000 mg QD, patients with CAH
Text: FIG. 2. Graphic representation of pharmacokinetics (dose-proportional, adequate exposure at safe doses) in patients with CAH following 14-days of once daily dosing at each dose level with a CRF1 antagonist (Compound 1).
FIG. 3. Graphic representation of pharmacokinetics (dose-proportional, adequate exposure at safe doses) in patients with CAH following 14-days of once daily dosing at each dose level with a CRF1 antagonist (Compound 1).
(§3) An ongoing Phase 2 open-label study (Study Compound 2) is currently evaluating the safety and efficacy of Compound 1 dosed once daily for 6 weeks in adults with classic CAH. In the initial Cohort A of this study, all subjects are dosed starting at 200 mg/day for 14 days, escalating for each subject to 600 mg/day for 14 days, then 1000 mg/day for 14 days if the subject experiences no DLTs at the previous dose level. (FIGS. 2-3).
(§4) The objectives of the study are: to assess the ability of Compound 1 to reduce excess ACTH and adrenal steroid production in participants with classic CAH on a stable gluococorticoid regimen; to evaluate the safety and tolerability of tildacerfont in participants with classic CAH; and to evaluate the pharmacokinetics (PK) of tildacerfont.

CRF1 receptor [6] = target: T1, CRF1 receptor; experiment: Inhibition of adenylate cyclase activity (CRF1 receptor-mediated downstream cascade); assay type: biochemical; conditions: in vitro
healthy volunteers = experiment: Phase 1 studies in healthy volunteers: safety and tolerability; assay type: in vivo
Text: Clinical laboratory measures of testicular function (LH, FSH, inhibin B, and SHBG) will be assessed throughout this study to monitor the risk of testicular injury. Testicular ultrasounds and semen analysis will also be performed at screening/baseline and the end of the treatment period.
Clinical laboratory measures of liver chemistry will be assessed throughout this study, and strict individual treatment stopping criteria for liver chemistry findings are in place.

beagle dogs = experiment: Repeat-dose oral toxicology study, 91 days, beagle dogs; assay type: in vivo, dog
Text: as §2

[7] = tested on: testicular adrenal rest tumors (TART); experiment: TART size pre-treatment vs 6 weeks post-treatment in a patient with classic CAH; assay type: in vivo, human; conditions: person with classic CAH, 6 weeks treatment
Text: FIG. 10A-10B. Images of a patient with TART pre-treatment with a CRF1 antagonist (Compound 1) (A) and 6-weeks post-treatment with a CRF1 antagonist (Compound 1) (B).
FIGS. 10A-10B show approximately 25% shrinkage in TART in a person with classic congenital adrenal hyperplasia following 6 weeks treatment with a CRF1 receptor antagonist.

[8] = tested on: participants with classic CAH; experiment: Phase 2 study in classic CAH: safety and tolerability; assay type: in vivo, human; conditions: across both cohorts
Experimental: as §3, §4
(§5) One participant withdrew early because of an occupation-related scheduling conflict. In Cohort B, 9 participants were enrolled and received at least one dose of Compound 1. […] Thus, baseline characteristics are calculated for n=8 in Cohort B. One participant in Cohort B was taking both HC and prednisone.

[9] = tested on: ACTH, 17OHP and androstenedione (A4) in participants with classic CAH; experiment: Phase 2 open-label study in adults with classic CAH: change in ACTH, 17OHP and A4; assay type: in vivo, human
Experimental: as §3
30% of subjects were in the normal range (*) after treatment with a CRF1 receptor antagonist.
50% of subjects were in the guideline range (*; 1200 ng/dL) after treatment with a CRF1 receptor antagonist.
50% of subjects were within the normal reference range after treatment with a CRF1 receptor antagonist.
as §4
• Adult males and females 18 years or older • Diagnosis of classic CAH due to 21-hydroxylase deficiency • Morning 17OHP≥800 ng/dL, before taking any morning GC dose • On a stable regimen of gluococorticoid replacement for ≥30 days before enrollment Exclusion Criteria: • Clinically significant unstable medical condition, illness, or chronic disease within 30 days of screening • Clinically significant psychiatric disorder • History of bilateral adrenalectomy or hypopituitarism Study Design
FIG. 14 depicts the proof of concept and escalating QD dosing at 10 PM for Cohort A and the single dose level and BID dosing at 10 AM and 10 pm for Cohort B.
as §5

male rats = experiment: Fertility toxicology study in male rats; assay type: in vivo, rat
Experimental: Additionally, a fertility toxicology study was conducted in rats. In this study, male rats were administered oral Compound 1 once daily at 0, 5, 20, or 1000 mg/kg for 85 to 87 days (70 days before mating, during mating, and ≤4 days between mating and necropsy). Male reproductive performance (mean day of mating, mating and fertility indices, and conception rates) was unaffected by Compound 1 treatment.

[10] = healthy human subjects, Phase 1
[11] = CAH subjects, FIGS. 4 and 5A-5B
[12] = CAH subjects, FIGS. 6 and 7A-7B
[13] = CAH subjects, FIGS. 8 and 9A-9B
[14] = Cohort A (200, 600, 1000 mg QD)

In the case of CCC(CC)c1cc(C)nc2c(-c3sc(N4CCOCC4)nc3Cl)c(C)nn12 [Compound 1, tildacerfont], the “inhibition of CRF-induced locomotor behavior” value [1] is reported as “significantly inhibit”, the “study drug absorption in a fasted state” value [2] is reported as “minimal study drug absorption” and the “laboratory abnormalities in liver function tests (LFTs)” value [3] is reported as “have been observed at significantly higher doses”. For the same compound, the reversibility of findings (rats; 6-week treatment-free recovery period) was “reversible”, the testicular effects (rats; high-dose 2,000 mg/kg/day) was “reversible testicular effects (degeneration/atrophy)” and the toxicologic findings (rats; oral once daily, 91 days, up to 2000 mg/kg/day) was “all mild and limited to the male reproductive tract”. The “affinity and selectivity for the hCRF1 receptor” value (CRF1 receptor [4]) was “high affinity and selective for the hCRF1 receptor”, the PK profile [5] was “predictable, dose-dependent PK profile” and the “inhibition of adenylate cyclase activity” value (CRF1 receptor [6]) was “functional potency to inhibit adenylate cyclase activity”. For the same compound, the “laboratory abnormalities in liver function tests (LFTs)” value (healthy volunteers; Phase 1 clinical studies) was “not observed”, the “alterations in safety laboratory values, vital signs, or electrocardiograms (ECGs)” value (healthy volunteers; Phase 1 studies) was “no clinically significant alterations” and the “adverse events, single ascending doses” value (healthy volunteers; Study I3C-FW-BLAA, 2 mg to 800 mg, small number of subjects) was “diarrhea and headache of mild or moderate severity”. For the same compound, the “adverse events, repeat doses” value (healthy volunteers; Study I3C-FW-BLAB, 50, 100 or 200 mg once daily for 14 days, small number of subjects) was “dyspnea, rhinorrhea, palpitations, and headache”, the “SAEs, AEs leading to discontinuation, dose-limiting toxicities” value (healthy volunteers; [10]) was “no SAEs, AEs leading to discontinuation, or dose-limiting toxicities (DLTs)” and the tolerability (healthy volunteers; [10]) was “well tolerated”. For the same compound, the “effects on clinical laboratory markers of testicular function (LH and FSH)” value (healthy volunteers; healthy male volunteers, up to 200 mg per day for 14 consecutive days) was “no effects”, the maximum tolerated dose (healthy volunteers; humans) was “has not been reached” and the reversibility of findings (beagle dogs; beagle dogs, 6-week treatment-free recovery period) was “reversible”. The toxicologic findings (beagle dogs; beagle dogs, oral once daily, 91 days, up to 2000 mg/kg/day) was “all mild and limited to the male reproductive tract”, the “effects on the thyroid gland” value (beagle dogs; dogs, 91 days, high-dose 2,000 mg/kg/day) was “effects on the thyroid gland were noted” and the testicular effects (beagle dogs; dogs, high-dose 2,000 mg/kg/day) was “reversible testicular effects (degeneration/atrophy)”. For the same compound, the “shrinkage in TART” value [7] was “approximately 25%”, the “most common type of adverse event (AE)” value [8] was “gastrointestinal disorders” and the “serious AEs and AEs leading to withdrawal” value [8] was “no serious AEs and no AEs leading to withdrawal”. The tolerability [8] was “generally well tolerated”, the “subjects in the normal range for ACTH after treatment” value [9, 11] was 30 % of subjects and the “subjects who demonstrated >25% reduction in ACTH” value [9, 11] was 70 % of subjects. For the same compound, the “subjects who demonstrated reduction in ACTH” value [9, 11] was 80 % of subjects, the “subjects in the guideline range (1200 ng/dL) for 17-OHP after treatment” value [9, 12] was 50 % of subjects and the “subjects who demonstrated >25% reduction in ACTH (printed in the 17-OHP paragraph)” value [9, 12] was 50 % of subjects. The “subjects who demonstrated reduction in 17-OHP” value [9, 12] was 80 % of subjects, the “subjects who demonstrated >25% reduction in androstenedione” value [9, 13] was 60 % of subjects and the “subjects within the normal reference range for androstenedione after treatment” value [9, 13] was 50 % of subjects. For the same compound, the “subjects who demonstrated reduction in androstenedione” value ([9]; CAH subjects, at various doses, FIGS. 8 and 9A-9B) was 100 % of subjects, the “participants whose levels of 17OHP improved at ≥1 dose level” value [9, 14] was 8 out of 10 and the “participants whose levels of A4 improved at ≥1 dose level” value [9, 14] was 10 out of 10. The “participants whose levels of ACTH improved at ≥1 dose level” value [9, 14] was 8 out of 10, the “Percentage change from baseline in 17OHP” value ([9]; Cohort A, 200 mg QD (Week 2)) was “+22.2 (±172.3) %” and the “Percentage change from baseline in A4” value ([9]; Cohort A, 200 mg QD (Week 2)) was −12.1 (±47.4) %. The “Percentage change from baseline in ACTH” value ([9]; Cohort A, 200 mg QD (Week 2)) was −25.7 (±51.6) %, the “Percentage change from baseline in 17OHP” value ([9]; Cohort A, 600 mg QD (Week 4)) was −23.7 (±64.2) % and the “Percentage change from baseline in A4” value ([9]; Cohort A, 600 mg QD (Week 4)) was −33.2 (±36.5) %. For the same compound, the “Percentage change from baseline in ACTH” value ([9]; Cohort A, 600 mg QD (Week 4)) was −60.1 (±37.5) %, the “Percentage change from baseline in 17OHP” value ([9]; Cohort A, 1000 mg QD (Week 6)) was −13.8 (±74.7) % and the “Percentage change from baseline in A4” value ([9]; Cohort A, 1000 mg QD (Week 6)) was −28.6 (±44.6) %. The “Percentage change from baseline in ACTH” value ([9]; Cohort A, 1000 mg QD (Week 6)) was −32.7 (±47.0) %, the “participants whose levels of 17OHP improved at ≥1 dose level” value ([9]; Cohort B (200 mg BID)) was 6 out of 7 and the “participants whose levels of A4 improved at ≥1 dose level” value ([9]; Cohort B (200 mg BID)) was 6 out of 8. For the same compound, the “participants whose levels of ACTH improved at ≥1 dose level” value ([9]; Cohort B (200 mg BID)) was 5 out of 7, the “Percentage change from baseline in 17OHP” value ([9]; Cohort B, 200 mg BID (Weed 2)) was −47.8 (±63.3) % and the “Percentage change from baseline in A4” value ([9]; Cohort B, 200 mg BID (Weed 2)) was −16.0 (±81.4) %. The “Percentage change from baseline in ACTH” value ([9]; Cohort B, 200 mg BID (Weed 2)) was −36.5 (±58.0) %, the “male reproductive performance (mean day of mating, mating and fertility indices, conception rates)” value (male rats; male rats, oral once daily 5, 20 or 1000 mg/kg for 85 to 87 days) was “unaffected” and the impairment in fertility (male rats; male reproductive studies in rodents, highest dose tested 1,000 mg/kg/day) was “no impairment in fertility”. For the same compound, the “ovarian and uterine effects in untreated females mated with treated males” value (male rats; rats) was “no ovarian and uterine effects”.
